Experimental data reported in US20040122096A1, “Use of inhibitors of the cellular Na+/H+ exchanger (NHE) for preparing a medicament for normalizing serum lipids” (Hoechst Aktiengesellschaft, priority 1996, published 2004).

Test system: male New Zealand white rabbits
Experiment: Serum total cholesterol and lipoprotein fractions in rabbits after 30 days feeding
Type: in vivo, rabbit
Conditions: mean ± SEM
Description: This antihyperlipidemic action is shown for an NHE inhibitor, 4-isopropyl-3-methylsulfonylbenzoylguanidine methanesulfonate (Hoe 642), in the following table, male New Zealand white rabbits (n=28) having a weight of 3-4 kg being used and divided into four groups of 7 animals in each case randomized as described below: 1) standard rabbit feed (®Altromin 2834), 2) atherogenic diet having a content of 0.25% cholesterol and 3% coconut oil, 3) standard rabbit feed+Hoe 642 (0.1%), 4) atherogenic diet+Hoe 642 (0.1%). Blood samples were taken once after 30 days feeding by puncture of the auricular artery. Serum was obtained from the blood. The total cholesterol was measured from the serum by means of the CHOD (cholesterol oxidase)-PAP method (Merckotest, Merck Diagnostics, E. Merck, 64271 Darmstadt, Germany). The separation of the lipoproteins was carried out, likewise from the serum, by FPLC (fast protein liquid chromatography) method (März et al. 1993, Clin. Chem. 39/11:2276-2281).

[1] = atherogenic diet (0.25% cholesterol, 3% coconut oil) + Hoe 642 0.1%
[2] = normal diet (standard rabbit feed) + Hoe 642 0.1%

## CC(C)c1ccc(C(=O)NC(=N)N)cc1S(C)(=O)=O [HOE 642, 4-isopropyl-3-methylsulfonylbenzoylguanidine methanesulfonate]
[1]
  LDL (serum cholesterol fraction): 2.1 ± 0.2 mmol/L
  Total cholesterol (serum): 7.95 ± 0.89 mmol/L
  VLDL (serum cholesterol fraction): 4.6 ± 0.6 mmol/L
[2]
  LDL (serum cholesterol fraction): 0.23 ± 0.04 mmol/L
  Total cholesterol (serum): 0.69 ± 0.1 mmol/L
  VLDL (serum cholesterol fraction): 0.05 ± 0.02 mmol/L
